In US12545673B2, “Imidazopyridine derivative and pharmaceutical composition comprising same as active ingredient” (TSD LIFE SCIENCES CO., LTD., priority 2019, dated 2026):
Read-outs that look alike come from different tables or passages of the source.

Columns and labels:
[1] = test system: human breast cancer cell line MDA-MB-231; assay: Cancer cell proliferation inhibitory activity evaluation 1 (CCK-8), MDA-MB-231; type: cell-based; details: MDA-MB-231, 72 h, read-out: Cancer cell proliferation inhibitory activity MDAMB231
Method: (§1) In order to identify whether the compound has anticancer activity, the human breast cancer cell line MDA-MB-231, the colorectal cancer cell line HT-29, the acute myeloid leukemia cell line U937, and the chronic myeloid leukemia cell line K562 were used. The cell line was cultured using RPMI-1640 medium containing 10% fetal bovine serum. Welgene products were used as the medium, and hyclone products were used for fetal bovine serum, and 1% of antibiotics for cell culture from Gibco were used as the culture medium.

MLK3 = MLK3 (Homo sapiens (Human), UniProt Q16584); assay: Evaluation of inhibitory activity of enzyme units, MLK3 ([γ-33P]-ATP filter assay); details: read-out: IC50(nM) MLK3
Sequence of MLK3 (Q16584 whole entry, looked up): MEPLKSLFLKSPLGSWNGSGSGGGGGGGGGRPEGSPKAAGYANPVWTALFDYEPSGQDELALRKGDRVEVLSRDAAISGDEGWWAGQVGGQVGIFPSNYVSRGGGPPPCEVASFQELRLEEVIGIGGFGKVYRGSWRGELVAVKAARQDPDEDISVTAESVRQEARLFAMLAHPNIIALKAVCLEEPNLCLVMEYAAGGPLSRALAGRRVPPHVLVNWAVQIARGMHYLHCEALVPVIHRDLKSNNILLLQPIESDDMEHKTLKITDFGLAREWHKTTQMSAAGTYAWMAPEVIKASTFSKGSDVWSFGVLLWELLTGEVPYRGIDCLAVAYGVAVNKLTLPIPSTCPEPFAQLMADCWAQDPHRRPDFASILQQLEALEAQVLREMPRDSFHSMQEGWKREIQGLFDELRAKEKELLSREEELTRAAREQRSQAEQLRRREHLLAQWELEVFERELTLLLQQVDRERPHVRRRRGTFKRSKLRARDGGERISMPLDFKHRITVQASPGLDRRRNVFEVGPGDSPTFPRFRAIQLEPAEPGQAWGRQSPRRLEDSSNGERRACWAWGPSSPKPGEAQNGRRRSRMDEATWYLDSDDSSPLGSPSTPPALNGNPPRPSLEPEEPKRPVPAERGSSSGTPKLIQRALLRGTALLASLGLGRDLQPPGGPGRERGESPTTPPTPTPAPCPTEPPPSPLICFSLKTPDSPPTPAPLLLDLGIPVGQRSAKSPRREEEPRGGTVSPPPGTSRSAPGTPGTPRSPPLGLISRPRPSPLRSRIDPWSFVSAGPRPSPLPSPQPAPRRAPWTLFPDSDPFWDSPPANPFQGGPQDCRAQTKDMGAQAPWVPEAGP

[2] = test system: acute lymphoblastic leukemia cell line Jurkat; assay: Cancer cell proliferation inhibitory activity evaluation 2 (CCK-8), Jurkat; type: cell-based; details: Homo sapiens
Fibronectin-1 = assay: Fibrosis inhibition evaluation 2, palmitic acid-induced HepG2, real-time PCR, Fibronectin-1
[3] = test system: acute myeloid leukemia cell line U937; assay: Cancer cell proliferation inhibitory activity evaluation 1 (CCK-8), U937; type: cell-based; details: Homo sapiens, U-937, 72 h, read-out: Cancer cell proliferation inhibitory activity U937
Method: as §1

[4] = test system: colorectal cancer cell line HT-29; assay: Cancer cell proliferation inhibitory activity evaluation 1 (CCK-8), HT-29; type: cell-based; details: Homo sapiens, HT-29, 72 h, read-out: Cancer cell proliferation inhibitory activity HT29
Method: as §1

TGF-β1 = assay: Fibrosis inhibition evaluation 2, palmitic acid-induced HepG2, real-time PCR, TGF-β1
α-SMA = assay: Fibrosis inhibition evaluation 2, palmitic acid-induced HepG2, real-time PCR, α-SMA; details: palmitic acid-induced HepG2 (Table 8)
[5] = test system: chronic myeloid leukemia cell line K562; assay: Cancer cell proliferation inhibitory activity evaluation 1 (CCK-8), K562; type: cell-based; details: Homo sapiens, K562, 72 h, read-out: Cancer cell proliferation inhibitory activity K562
Method: as §1

LRRK2 mutant (G2019S) = LRRK2 mutant (G2019S) (Homo sapiens (Human), UniProt Q5S007, G2019S); assay: Evaluation of inhibitory activity against LRRK2 (affinity bead competition binding), G2019S mutant; details: read-out: Residual active values (%) LRRK2(G2019S); for remaining binding at 0.1 µM: 100 nM; for remaining binding at 0.5 µM: 500 nM
Sequence of LRRK2 mutant (G2019S) (Q5S007 whole entry G2019S, looked up): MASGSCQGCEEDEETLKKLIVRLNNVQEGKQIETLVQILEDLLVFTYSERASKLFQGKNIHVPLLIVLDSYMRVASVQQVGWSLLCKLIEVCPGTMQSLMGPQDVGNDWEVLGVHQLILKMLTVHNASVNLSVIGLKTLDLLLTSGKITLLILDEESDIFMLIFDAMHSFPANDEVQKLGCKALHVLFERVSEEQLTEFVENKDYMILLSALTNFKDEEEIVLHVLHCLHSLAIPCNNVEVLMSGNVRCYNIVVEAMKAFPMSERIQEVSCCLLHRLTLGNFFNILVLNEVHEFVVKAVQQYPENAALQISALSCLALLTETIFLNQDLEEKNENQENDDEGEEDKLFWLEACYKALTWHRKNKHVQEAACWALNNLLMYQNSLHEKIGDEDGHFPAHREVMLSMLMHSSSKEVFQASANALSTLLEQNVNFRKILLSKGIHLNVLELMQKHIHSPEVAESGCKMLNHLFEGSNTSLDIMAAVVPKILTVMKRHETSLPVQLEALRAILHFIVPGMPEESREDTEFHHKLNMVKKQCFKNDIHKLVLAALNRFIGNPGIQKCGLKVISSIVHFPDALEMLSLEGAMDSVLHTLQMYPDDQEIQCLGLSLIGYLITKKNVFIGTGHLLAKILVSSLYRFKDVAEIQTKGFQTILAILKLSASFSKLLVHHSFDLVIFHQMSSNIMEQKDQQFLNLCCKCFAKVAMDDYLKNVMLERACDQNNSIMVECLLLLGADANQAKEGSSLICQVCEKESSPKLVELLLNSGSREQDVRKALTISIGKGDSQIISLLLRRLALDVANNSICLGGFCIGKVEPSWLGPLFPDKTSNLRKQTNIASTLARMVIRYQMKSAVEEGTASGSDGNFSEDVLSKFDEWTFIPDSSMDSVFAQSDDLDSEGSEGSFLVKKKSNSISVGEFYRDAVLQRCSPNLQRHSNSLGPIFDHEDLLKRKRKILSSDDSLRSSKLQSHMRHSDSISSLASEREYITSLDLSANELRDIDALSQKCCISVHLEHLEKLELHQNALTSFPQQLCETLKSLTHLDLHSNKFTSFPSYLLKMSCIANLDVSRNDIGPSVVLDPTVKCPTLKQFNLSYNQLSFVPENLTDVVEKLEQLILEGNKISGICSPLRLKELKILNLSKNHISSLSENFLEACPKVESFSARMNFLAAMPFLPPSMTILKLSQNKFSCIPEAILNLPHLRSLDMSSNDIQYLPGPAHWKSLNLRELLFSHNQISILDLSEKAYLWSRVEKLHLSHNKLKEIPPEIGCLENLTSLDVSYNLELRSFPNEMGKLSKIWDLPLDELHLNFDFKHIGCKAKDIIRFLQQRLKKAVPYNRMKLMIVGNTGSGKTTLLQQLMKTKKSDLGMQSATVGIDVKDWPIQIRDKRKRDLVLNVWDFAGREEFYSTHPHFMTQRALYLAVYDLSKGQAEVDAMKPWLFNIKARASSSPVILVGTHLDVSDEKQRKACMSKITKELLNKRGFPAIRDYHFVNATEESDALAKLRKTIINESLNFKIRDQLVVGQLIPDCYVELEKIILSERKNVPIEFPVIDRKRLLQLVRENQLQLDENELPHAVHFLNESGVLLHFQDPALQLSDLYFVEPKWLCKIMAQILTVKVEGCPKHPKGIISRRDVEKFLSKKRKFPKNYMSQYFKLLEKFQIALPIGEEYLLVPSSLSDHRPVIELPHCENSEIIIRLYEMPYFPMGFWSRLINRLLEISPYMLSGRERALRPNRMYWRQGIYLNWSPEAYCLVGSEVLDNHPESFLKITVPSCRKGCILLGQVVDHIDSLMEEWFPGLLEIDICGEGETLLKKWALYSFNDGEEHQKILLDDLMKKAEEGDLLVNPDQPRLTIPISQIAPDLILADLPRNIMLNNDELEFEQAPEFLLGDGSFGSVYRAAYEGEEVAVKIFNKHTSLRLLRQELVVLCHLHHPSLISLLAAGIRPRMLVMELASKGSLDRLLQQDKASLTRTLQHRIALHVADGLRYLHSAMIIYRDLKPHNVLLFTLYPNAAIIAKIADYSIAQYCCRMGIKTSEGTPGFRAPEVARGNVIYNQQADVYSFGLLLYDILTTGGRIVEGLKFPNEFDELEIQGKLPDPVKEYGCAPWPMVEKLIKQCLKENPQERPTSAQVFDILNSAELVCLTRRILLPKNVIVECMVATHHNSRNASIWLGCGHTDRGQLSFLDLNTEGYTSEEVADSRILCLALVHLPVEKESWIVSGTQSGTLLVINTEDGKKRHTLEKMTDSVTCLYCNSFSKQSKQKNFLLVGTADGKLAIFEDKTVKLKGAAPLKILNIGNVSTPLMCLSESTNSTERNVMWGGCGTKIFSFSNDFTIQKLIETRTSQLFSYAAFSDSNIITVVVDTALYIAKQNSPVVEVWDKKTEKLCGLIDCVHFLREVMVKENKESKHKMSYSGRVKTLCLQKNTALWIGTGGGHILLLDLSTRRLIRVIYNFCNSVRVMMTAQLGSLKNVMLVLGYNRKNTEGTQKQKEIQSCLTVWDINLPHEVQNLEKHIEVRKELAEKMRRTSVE
Procedure, shortened: (§2)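 Competition binding against immobilized biotinylated ligand for DNA-tagged wild-type or G2019S LRRK2, produced from T7 phage-infected E. coli (MOI 0.4, 32° C.) lysate then HEK293 cells. Beads blocked and washed in SeaBlock buffer (1% BSA, 0.05% Tween 20, 1 mM DTT); compounds prepared as 40× stocks in 100% DMSO.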

[6] = test system: acute myeloid leukemia cell line U937; assay: Cancer cell proliferation inhibitory activity evaluation 2 (CCK-8), U937; type: cell-based; details: Homo sapiens, read-out: Cancer cell proliferation inhibitory activity U937
LRRK2 wild-type = LRRK2 wild-type (Homo sapiens (Human), UniProt Q5S007); assay: Evaluation of inhibitory activity against LRRK2 (affinity bead competition binding), wild-type; details: read-out: Residual active values (%) LRRK2; for remaining binding at 0.1 µM: 100 nM; for remaining binding at 0.5 µM: 500 nM
Sequence of LRRK2 wild-type (Q5S007 whole entry, looked up): as the sequence (Q5S007 whole entry G2019S, looked up) above, with S2019G counted along it
Procedure, shortened: as §2

[7] = test system: gastric cancer cell line AGS; assay: Cancer cell proliferation inhibitory activity evaluation 2 (CCK-8), AGS; type: cell-based; details: Homo sapiens, read-out: Cancer cell proliferation inhibitory activity AGS
MLK2 = MLK2 (Homo sapiens (Human), UniProt Q02779); assay: Evaluation of inhibitory activity of enzyme units, MLK2 ([γ-33P]-ATP filter assay); type: biochemical
MLK1 = MLK1 (Homo sapiens (Human), UniProt P80192); assay: Evaluation of inhibitory activity of enzyme units, MLK1 ([γ-33P]-ATP filter assay); type: biochemical
Sequence of MLK1 (P80192 whole entry, looked up): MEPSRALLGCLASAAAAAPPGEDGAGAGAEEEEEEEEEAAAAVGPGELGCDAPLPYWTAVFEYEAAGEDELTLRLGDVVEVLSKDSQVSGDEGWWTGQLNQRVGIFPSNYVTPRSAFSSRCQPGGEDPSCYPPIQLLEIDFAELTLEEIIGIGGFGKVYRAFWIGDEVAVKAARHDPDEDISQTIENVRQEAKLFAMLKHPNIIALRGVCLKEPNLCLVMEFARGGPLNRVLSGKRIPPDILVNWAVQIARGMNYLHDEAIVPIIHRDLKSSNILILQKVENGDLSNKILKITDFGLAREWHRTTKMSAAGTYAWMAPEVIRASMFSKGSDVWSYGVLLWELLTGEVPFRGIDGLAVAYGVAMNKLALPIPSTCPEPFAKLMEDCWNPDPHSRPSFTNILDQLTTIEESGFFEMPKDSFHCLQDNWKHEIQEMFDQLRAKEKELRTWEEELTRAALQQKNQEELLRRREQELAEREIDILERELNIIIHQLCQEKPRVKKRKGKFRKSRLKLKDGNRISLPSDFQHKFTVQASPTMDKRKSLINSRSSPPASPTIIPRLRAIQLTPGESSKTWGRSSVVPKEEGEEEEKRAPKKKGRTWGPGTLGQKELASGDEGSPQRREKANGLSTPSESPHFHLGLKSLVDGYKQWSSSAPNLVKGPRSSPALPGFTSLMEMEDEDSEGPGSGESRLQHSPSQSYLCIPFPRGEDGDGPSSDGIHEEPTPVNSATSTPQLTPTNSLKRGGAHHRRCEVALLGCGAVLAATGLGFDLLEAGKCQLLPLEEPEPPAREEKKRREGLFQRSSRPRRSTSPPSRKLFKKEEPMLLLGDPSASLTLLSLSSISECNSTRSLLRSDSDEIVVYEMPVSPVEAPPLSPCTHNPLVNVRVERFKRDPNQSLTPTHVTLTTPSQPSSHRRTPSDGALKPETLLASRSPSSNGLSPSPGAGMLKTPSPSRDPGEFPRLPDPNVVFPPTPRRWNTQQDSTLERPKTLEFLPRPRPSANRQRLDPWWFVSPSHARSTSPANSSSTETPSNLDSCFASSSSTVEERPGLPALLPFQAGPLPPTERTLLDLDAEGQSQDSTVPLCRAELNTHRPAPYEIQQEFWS

[8] = test system: gastric cancer cell line Hs746T; assay: Cancer cell proliferation inhibitory activity evaluation 2 (CCK-8), Hs746T; type: cell-based; details: Homo sapiens
[9] = test system: human lung cancer cell line A549; assay: Cancer cell proliferation inhibitory activity evaluation 2 (CCK-8), A549; type: cell-based
[10] = 72 h, read-out: Cancer cell proliferation inhibitory activity Jurkat
[11] = 10 μM, 72 hours, CCK-8, read-out: Cancer cell proliferation inhibitory activity Jurkat
[12] = U-937, 10 μM, 72 hours, CCK-8 (Table 3)
[13] = 72 h, read-out: Cancer cell proliferation inhibitory activity Hs746T
[14] = A549, 72 h, read-out: Cancer cell proliferation inhibitory activity A549
[15] = 10 μM, 72 hours, CCK-8, read-out: Cancer cell proliferation inhibitory activity Hs746T
[16] = A549, 10 μM, 72 hours, CCK-8, read-out: Cancer cell proliferation inhibitory activity A549

Row | SMILES | IC50 (MLK3) | inhibition at 10 µM [2, 10] | Relative degree of expression inhibition (%) Fibronectin-1 (Fibronectin-1) | Relative degree of expression inhibition (%) TGF-β1 (TGF-β1) | Relative degree of expression inhibition (%) α-SMA (α-SMA) | remaining binding at 0.1 µM (LRRK2 mutant (G2019S)) | remaining binding at 0.5 µM (LRRK2 mutant (G2019S)) | inhibition at 10 µM ([6]; U-937, 72 h) | remaining binding at 0.1 µM (LRRK2 wild-type) | remaining binding at 0.5 µM (LRRK2 wild-type) | inhibition at 10 µM ([7]; 72 h) | inhibition at 10 µM [2, 11] | IC50 (MLK1) | inhibition at 10 µM [6, 12] | inhibition at 10 µM ([7]; 10 μM, 72 hours, CCK-8) | inhibition at 10 µM [8, 15] | inhibition at 10 µM [9, 16] | further results
1 | CCS(=O)(=O)N1CC[C@H](Nc2c(Br)cnc3[nH]c(-c4cc(C)n(-c5cccc(N6CCOCC6)c5)c4C)nc23)C1 [Example 2, (S)-6-bromo-2-(2,5-dimethyl-1-(3-morpholinophenyl)-1H-pyrrol-3-yl)-N-(1-(ethylsulfonyl)pyrrolidine-3-yl)-3H-imidazo[4,5-b]pyridine-7-amine] | 4 nM | 10 to 50% | 77.72% | 97.39% | 48.35% | 4% | 0.8% | 10 to 50% | 17% | 3.5% | > 50% |  |  |  |  |  |  | inhibition at 10 µM [1]: > 50%; inhibition at 10 µM [3]: > 50%; inhibition at 10 µM [4]: > 50%; inhibition at 10 µM [5]: > 50%
2 | Cc1cc(-c2nc3c(Nc4ccc5c(c4)OCO5)c(Br)cnc3[nH]2)c(C)n1-c1cccc(S(N)(=O)=O)c1 [Example 44, 3-(3-(7-(benzo[d][1,3]dioxole-5-yl-amino)-6-bromo-3H-imidazo[4,5-b]pyridine-2-yl)-2,5-dimethyl-1H-pyrrol-1-yl)benzenesulfonamide] | 27 nM |  | 75.60% | 57.05% | 73.45% |  |  |  |  |  |  | 10 to 50% | 109 nM | 10 to 50% | 10 to 50% |  |  | IC50 (MLK2): 211 nM
3 | COCCOc1ccc(Nc2c(Br)cnc3[nH]c(-c4cc(C)n(-c5ccc6c(c5)OCO6)c4C)nc23)cc1 [Example 45, 2-(1-(benzo[d][1,3]dioxole-5-yl)-2,5-dimethyl-1H-pyrrol-3-yl)-6-bromo-N-(4-(2-methoxyethoxy)phenyl)-3H-imidazo[4,5-b]pyridine-7-amine] | 32 nM |  | 60.64% | 33.15% | 74.97% |  |  |  |  |  |  | < 10% | 85 nM | 10 to 50% | 10 to 50% |  |  | IC50 (MLK2): 524 nM
4 | CCS(=O)(=O)N1CC[C@H](Nc2c(Br)cnc3nc(-c4cc(C)n(-c5cccc(C(=O)N6CCN(C)CC6)c5C)c4C)[nH]c23)C1 [Example 81, (3-(3-(6-bromo-7-(((S)-1-(ethylsulfonyl)pyrrolidine-3-yl)amino)-1H-imidazo[4,5-b]pyridine-2-yl)-2,5-dimethyl-1H-pyrrol-1-yl)-2-methylphenyl) (4-methylpiperazine-1-yl) methanone] | 9 nM | > 50% | 61.05% | 44.28% | 61.69% | 0% | 0.1% | > 50% | 0.7% | 0.6% | > 50% |  | 14 nM |  |  |  |  | inhibition at 10 µM [8, 13]: 10 to 50%; inhibition at 10 µM [9, 14]: 10 to 50%
5 | Cc1ccc(NC(=O)CN2CCOCC2)cc1-n1c(C)cc(-c2nc3ncc(Br)c(Nc4cccc(S(N)(=O)=O)c4)c3[nH]2)c1C [Example 88, N-(3-(3-(6-bromo-7-((3-sulfamoylphenyl)amino)-1H-imidazo[4,5-b]pyridine-2-yl)-2,5-dimethyl-1H-pyrrol-1-yl)-4-methylphenyl)-2-morpholinoacetamide] | 52 nM |  | 86.78% | 56.45% | 74.86% | 57% | 19% |  | 73% | 46% |  | > 50% | 82 nM | 10 to 50% | > 50% | > 50% | 10 to 50% | 
6 | CCS(=O)(=O)N1CC[C@H](Nc2c(Br)cnc3nc(-c4cc(C)n(-c5cc(C(=O)NCCN(C)C)ccc5C)c4C)[nH]c23)C1 [Example 93, 3-(3-(6-bromo-7-(((S)-1-(ethylsulfonyl)pyrrolidine-3-yl)amino)-1H-imidazo[4,5-b]pyridine-2-yl)-2,5-dimethyl-1H-pyrrol-1-yl)-N-(2-(dimethylamino)ethyl)-4-methylbenzamide] | 54 nM | > 50% | 74.05% | 42.54% | 73.82% | 66% | 25% | > 50% | 60% | 51% | > 50% |  | 33 nM |  |  |  |  | inhibition at 10 µM [8, 13]: > 50%; inhibition at 10 µM [9, 14]: 10 to 50%
7 | Cc1ccc(C(=O)N2CCN(C)CC2)cc1-n1c(C)cc(-c2nc3ncc(Br)c(Nc4cccc(S(N)(=O)=O)c4)c3[nH]2)c1C [Example 95, 3-((6-bromo-2-(2,5-dimethyl-1-(2-methyl-5-(4-methylpiperazine-1-carbonyl)phenyl)-1H-pyrrol-3-yl)-1H-imidazo[4,5-b]pyridine-7-yl)amino)benzenesulfonamide] | 60 nM |  | 65.78% | 45.25% | 67.81% | 79% | 24% |  | 68% | 43% |  | 10 to 50% | 37 nM | < 10% | 10 to 50% | 10 to 50% | < 10% | 
8 | Cc1ccc(C(=O)NCCN(C)C)cc1-n1c(C)cc(-c2nc3ncc(Br)c(Nc4cccc(S(N)(=O)=O)c4)c3[nH]2)c1C [Example 96, 3-(3-(6-bromo-7-((3-sulfamoylphenyl)amino)-1H-imidazo[4,5-b]pyridine-2-yl)-2,5-dimethyl-1H-pyrrol-1-yl)-N-(2-(dimethylamino)ethyl)-4-methylbenzamide] | 137 nM |  | 61.67. % | 92.86% | 37.83% | 0.8% | 0.6% |  | 0.4% | 0% |  | < 10% | 145 nM | < 10% | < 10% | 10 to 50% | < 10% | 
